Data on 6 compounds can be found in PubChem BioAssay AID2768 (The Scripps Research Institute Molecular Screening Center, 2010).

As a reminder, the IC50 is the midpoint of a concentration-inhibition curve.

The target of this experiment is metallo-beta-lactamase IMP-1 (Pseudomonas aeruginosa) (UniProt Q79MP6). Kind of experiment: inhibition of IMP-1 substrate hydrolysis – biochemical, epi-absorbance, dose response, late-stage follow-up (AID 2768). To be noted: purified IMP-1, absorbance substrate hydrolysis.
Sequence of metallo-beta-lactamase IMP-1 (Pseudomonas aeruginosa) (Q79MP6 1-246): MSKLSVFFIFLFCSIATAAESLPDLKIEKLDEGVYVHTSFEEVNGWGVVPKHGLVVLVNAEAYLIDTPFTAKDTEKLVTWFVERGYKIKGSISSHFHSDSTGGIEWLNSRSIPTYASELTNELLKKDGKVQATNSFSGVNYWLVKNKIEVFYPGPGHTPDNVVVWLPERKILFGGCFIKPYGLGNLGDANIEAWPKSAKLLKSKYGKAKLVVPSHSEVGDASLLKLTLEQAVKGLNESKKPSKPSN

Turning to `[Hg+][c]1ccccc1`, the IC50 was 1.51 µM.
Under `O=C(O)c1ccc[c]([Hg+])c1` stands 1.33 µM.
Next, `Cc1cc[c]([Hg+])cc1`: 1.81 µM; `CC(=O)Nc1cc[c]([Hg+])cc1`: 3.74 µM; `COc1cccc[c]1[Hg+]`: 2.33 µM.
As for `O=C(O)c1cc[c]([Hg][Cl])cc1`, the IC50 is 8.7 µM.
